From patent US11090319B2, “Therapeutic uses of pharmaceutical compositions comprising cyclic boronic acid ester derivatives” (Melinta Subsidiary Corp., priority 2010, dated 2021)

System: strains expressing KPC alone or in combination with additional beta-lactamases
Assay: microbe, parasite or virus in culture
Format: cell-based
[1] = Enterobacter cloacae ECL1058, KPC-3, SHV-11, TEM-1, Compound 5 0.31 mg/L
[2] = Enterobacter cloacae ECL1058, KPC-3, SHV-11, TEM-1, Compound 5 0.625 mg/L
[3] = Enterobacter cloacae ECL1059, KPC-3, SHV-12, TEM-1, Compound 5 0.31 mg/L
[4] = Enterobacter cloacae ECL1059, KPC-3, SHV-12, TEM-1, Compound 5 0.625 mg/L
[5] = Enterobacter cloacae ECL1059, KPC-3, SHV-12, TEM-1, Compound 5 5 mg/L
[6] = Enterobacter cloacae ECL1059, KPC-3, SHV-12, TEM-1, Compound 5 10 mg/L
[7] = Enterobacter cloacae ECL1059, KPC-3, SHV-12, TEM-1, Compound 5 […]
[8] = Escherichia coli EC1007, KPC-3, Compound 5 0.31 mg/L
[9] = Escherichia coli EC1007, KPC-3, Compound 5 0.625 mg/L
[10] = Escherichia coli EC1007, KPC-3, Compound 5 5 mg/L
[11] = Escherichia coli EC1007, KPC-3, Compound 5 10 mg/L
[12] = Escherichia coli EC1007, KPC-3, Compound 5 […]
[13] = Klebsiella oxytoca KX1017, KPC-2, OXA-2, SHV-30, Compound 5 0.31 mg/L
[14] = Klebsiella oxytoca KX1017, KPC-2, OXA-2, SHV-30, Compound 5 0.625 mg/L
[15] = Klebsiella oxytoca KX1017, KPC-2, OXA-2, SHV-30, Compound 5 5 mg/L
[16] = Klebsiella oxytoca KX1017, KPC-2, OXA-2, SHV-30, Compound 5 10 mg/L
[17] = Klebsiella oxytoca KX1018, KPC-2, SHV-40, OXY-1, Compound 5 0.31 mg/L
[18] = Klebsiella oxytoca KX1018, KPC-2, SHV-40, OXY-1, Compound 5 0.625 mg/L
[19] = Klebsiella oxytoca KX1018, KPC-2, SHV-40, OXY-1, Compound 5 […]
[20] = Klebsiella oxytoca KX1019, KPC-2 OXA-2, Compound 5 0.625 mg/L
[21] = Klebsiella pneumoniae KP 1004, KPC-2, Compound 5 0.31 mg/L
[22] = Klebsiella pneumoniae KP 1004, KPC-2, Compound 5 0.625 mg/L
[23] = Klebsiella pneumoniae KP 1004, KPC-2, Compound 5 5 mg/L
[24] = Klebsiella pneumoniae KP 1004, KPC-2, Compound 5 10 mg/L

O=C(O)C[C@@H]1CC[C@H](NC(=O)Cc2cccs2)B(O)O1 [Compound 5, 2-((3R,6S)-2-hydroxy-3-(2-(thiophen-2-yl)acetamido)-1,2-oxaborinan-6-yl)acetic acid]
potentiation of carbapenems: significantly potentiate multiple carbapenems | MIC of Doripenem [1]: Y (MIC of 0.5 mg/L to 4 mg/L) | MIC of Ertapenem [1]: Z (MIC of greater than 4 mg/L) | MIC of Doripenem [2]: Y (MIC of 0.5 mg/L to 4 mg/L) | MIC of Ertapenem [2]: Z (MIC of greater than 4 mg/L) | MIC of Ertapenem (Enterobacter cloacae ECL1058, KPC-3, SHV-11, TEM-1, Compound 5 5 mg/L): X (MIC of less than 0.5 mg/L) | MIC of Ertapenem (Enterobacter cloacae ECL1058, KPC-3, SHV-11, TEM-1, Compound 5 10 mg/L): X (MIC of less than 0.5 mg/L) | MIC of Doripenem (Enterobacter cloacae ECL1058, KPC-3, SHV-11, TEM-1, Compound 5 […]): Y (MIC of 0.5 mg/L to 4 mg/L) | MIC of Doripenem [3]: X (MIC of less than 0.5 mg/L) | MIC of Ertapenem [3]: X (MIC of less than 0.5 mg/L) | MIC of Doripenem [4]: X (MIC of less than 0.5 mg/L) | MIC of Ertapenem [4]: X (MIC of less than 0.5 mg/L) | MIC of Biapenem [5]: X (MIC of less than 0.5 mg/L) | MIC of Doripenem [5]: X (MIC of less than 0.5 mg/L) | MIC of Ertapenem [5]: X (MIC of less than 0.5 mg/L) | MIC of Biapenem [6]: X (MIC of less than 0.5 mg/L) | MIC of Doripenem [6]: X (MIC of less than 0.5 mg/L) | MIC of Ertapenem [6]: X (MIC of less than 0.5 mg/L) | MIC of Biapenem [7]: X (MIC of less than 0.5 mg/L) | MIC of Doripenem [7]: X (MIC of less than 0.5 mg/L) | MIC of Ertapenem [7]: X (MIC of less than 0.5 mg/L) | MIC of Doripenem [8]: X (MIC of less than 0.5 mg/L) | MIC of Ertapenem [8]: X (MIC of less than 0.5 mg/L) | MIC of Doripenem [9]: X (MIC of less than 0.5 mg/L) | MIC of Ertapenem [9]: X (MIC of less than 0.5 mg/L) | MIC of Doripenem [10]: X (MIC of less than 0.5 mg/L) | MIC of Ertapenem [10]: X (MIC of less than 0.5 mg/L) | MIC of Biapenem [11]: X (MIC of less than 0.5 mg/L) | MIC of Doripenem [11]: X (MIC of less than 0.5 mg/L) | MIC of Ertapenem [11]: X (MIC of less than 0.5 mg/L) | MIC of Doripenem [12]: X (MIC of less than 0.5 mg/L) | MIC of Ertapenem [12]: X (MIC of less than 0.5 mg/L) | MIC of Biapenem [13]: Y (MIC of 0.5 mg/L to 4 mg/L) | MIC of Doripenem [13]: Y (MIC of 0.5 mg/L to 4 mg/L) | MIC of Ertapenem [13]: Y (MIC of 0.5 mg/L to 4 mg/L) | MIC of Doripenem [14]: Y (MIC of 0.5 mg/L to 4 mg/L) | MIC of Ertapenem [14]: Y (MIC of 0.5 mg/L to 4 mg/L) | MIC of Biapenem [15]: X (MIC of less than 0.5 mg/L) | MIC of Doripenem [15]: X (MIC of less than 0.5 mg/L) | MIC of Ertapenem [15]: X (MIC of less than 0.5 mg/L) | MIC of Biapenem [16]: X (MIC of less than 0.5 mg/L) | MIC of Doripenem [16]: X (MIC of less than 0.5 mg/L) | MIC of Ertapenem [16]: X (MIC of less than 0.5 mg/L) | MIC of Biapenem [17]: X (MIC of less than 0.5 mg/L) | MIC of Doripenem [17]: X (MIC of less than 0.5 mg/L) | MIC of Ertapenem [17]: X (MIC of less than 0.5 mg/L) | MIC of Biapenem [18]: X (MIC of less than 0.5 mg/L) | MIC of Doripenem [18]: X (MIC of less than 0.5 mg/L) | MIC of Ertapenem [18]: X (MIC of less than 0.5 mg/L) | MIC of Biapenem [19]: X (MIC of less than 0.5 mg/L) | MIC of Doripenem [19]: X (MIC of less than 0.5 mg/L) | MIC of Ertapenem [19]: X (MIC of less than 0.5 mg/L) | MIC of Ertapenem (Klebsiella oxytoca KX1019, KPC-2 OXA-2, Compound 5 0.31 mg/L): Y (MIC of 0.5 mg/L to 4 mg/L) | MIC of Doripenem [20]: Y (MIC of 0.5 mg/L to 4 mg/L) | MIC of Ertapenem [20]: Y (MIC of 0.5 mg/L to 4 mg/L) | MIC of Ertapenem (Klebsiella oxytoca KX1019, KPC-2 OXA-2, Compound 5 5 mg/L): X (MIC of less than 0.5 mg/L) | MIC of Ertapenem (Klebsiella oxytoca KX1019, KPC-2 OXA-2, Compound 5 10 mg/L): X (MIC of less than 0.5 mg/L) | MIC of Ertapenem (Klebsiella oxytoca KX1019, KPC-2 OXA-2, Compound 5 […]): Y (MIC of 0.5 mg/L to 4 mg/L) | MIC of Biapenem [21]: X (MIC of less than 0.5 mg/L) | MIC of Doripenem [21]: X (MIC of less than 0.5 mg/L) | MIC of Ertapenem [21]: Y (MIC of 0.5 mg/L to 4 mg/L) | MIC of Biapenem [22]: X (MIC of less than 0.5 mg/L) | MIC of Doripenem [22]: X (MIC of less than 0.5 mg/L) | MIC of Ertapenem [22]: Y (MIC of 0.5 mg/L to 4 mg/L) | MIC of Biapenem [23]: X (MIC of less than 0.5 mg/L) | MIC of Doripenem [23]: X (MIC of less than 0.5 mg/L) | MIC of Ertapenem [23]: X (MIC of less than 0.5 mg/L) | MIC of Biapenem [24]: X (MIC of less than 0.5 mg/L) | MIC of Doripenem [24]: X (MIC of less than 0.5 mg/L) | MIC of Ertapenem [24]: X (MIC of less than 0.5 mg/L)
